According to the supplement of paper PMC11061612:

Legend:
Assay in all cases: combination Emax (second highest fraction inhibited in the dose matrix, 72 h); higher = more inhibition; extreme values may be limits of the assay
[1] = system: CCRF-CEM (T-Lymphoblastic Leukemia)
Outline: (§1)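 Bliss excess equals the observed combination effect minus the expected value EA + EB − EA·EB, where EA and EB are the effects of each agent alone. Combination Emax is the second-highest inhibition within the matrix. Inhibition was scaled from CellTiter-Glo 2.0 luminescence, with 0 set by vehicle wells and 1 by blank wells, after 72 hours of two-drug dosing of cells plated in 1536-well plates.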

[2] = system: LS-180 (Colorectal Carcinoma)
Outline: as §1

[3] = system: SNU-5 (Gastric Carcinoma)
Outline: as §1

[4] = system: ES4 (Ewing's Sarcoma)
Outline: as §1

[5] = system: HuP-T4 (Pancreatic Carcinoma)
Outline: as §1

[6] = system: CAL-148 (Breast Carcinoma)
Outline: as §1

[7] = system: Hs-578-T (Breast Carcinoma)
Outline: as §1

[8] = system: KYSE-520 (Esophageal Squamous Cell Carcinoma)
Outline: as §1

[9] = system: Ramos-2G6-4C10 (Burkitt's Lymphoma)
Outline: as §1

[10] = system: LU-135 (Small Cell Lung Carcinoma)
Outline: as §1

[11] = system: COLO-205 (Colorectal Carcinoma)
Outline: as §1

[12] = system: LB831-BLC (Bladder Carcinoma)
Outline: as §1

[13] = system: AGS (Gastric Carcinoma)
Outline: as §1

[14] = system: NOS-1 (Osteosarcoma)
Outline: as §1

[15] = system: HT-1376 (Bladder Carcinoma)
Outline: as §1

[16] = system: DoTc2-4510 (Cervical Carcinoma)
Outline: as §1

[17] = system: 42-MG-BA (Glioblastoma)
Outline: as §1

[18] = system: TE-15 (Esophageal Squamous Cell Carcinoma)
Outline: as §1

[19] = system: TCCSUP (Bladder Carcinoma)
Outline: as §1

[20] = system: HOS (Osteosarcoma)
Outline: as §1

| SMILES | combination Emax [1] | combination Emax [2] | combination Emax [3] | combination Emax [4] | combination Emax [5] | combination Emax [6] | combination Emax [7] | combination Emax [8] | combination Emax [9] | combination Emax [10] | combination Emax [11] | combination Emax [12] | combination Emax [13] | combination Emax [14] | combination Emax [15] | combination Emax [16] | combination Emax [17] | combination Emax [18] | combination Emax [19] | combination Emax [20] |
| --- | --- | --- | --- | --- | --- | --- | --- | --- | --- | --- | --- | --- | --- | --- | --- | --- | --- | --- | --- | --- |
| COc1cc2ncnc(Nc3ccc(F)c(Cl)c3)c2cc1OCCCN1CCOCC1 [Gefitinib] + CC(C)n1c(=O)n(C)c2cnc3cc(F)c(-c4ccc(OCCCN5CCCCC5)nc4)cc3c21 [AZD1390] (first compound max 10 µM, 7x7, partner max 0.3 µM) | 0.054 | 0.292 | 0.178 | 0.3 | 0.178 | 0.142 | 0.319 | 0.556 | 0.148 | 0.129 | 0.135 | 0.202 | 0.133 | 0.714 | 0.177 | 0.297 | 0.32 | 0.762 | 0.114 | 0.0904 |
| CS(=O)(=O)CCNCc1ccc(-c2ccc3ncnc(Nc4ccc(OCc5cccc(F)c5)c(Cl)c4)c3c2)o1 [Lapatinib] + C[C@@H](Oc1cc(-c2cnn(C3CCNCC3)c2)cnc1N)c1c(Cl)ccc(F)c1Cl [Crizotinib] (first compound max 10 µM, 7x7, partner max 10 µM) | 0.881 | 0.908 | 0.927 | 0.928 | 0.915 | 0.771 | 0.991 | 0.945 | 0.898 | 0.94 | 0.939 | 0.826 | 0.976 | 0.985 | 0.255 | 0.942 | 0.767 | 0.906 | 0.508 | 0.408 |
| CC(=O)c1c(C)c2cnc(Nc3ccc(N4CCNCC4)cn3)nc2n(C2CCCC2)c1=O [Palbociclib] + CC1(C)CCC(CN2CCN(c3ccc(C(=O)NS(=O)(=O)c4ccc(NCC5CCOCC5)c([N+](=O)[O-])c4)c(Oc4cnc5[nH]ccc5c4)c3)CC2)=C(c2ccc(Cl)cc2)C1 [Venetoclax] (first compound max 10 µM, 7x7, partner max 1 µM) | 0.67 | 0.61 | 0.336 | 0.21 | 0.163 | 0.161 | 0.189 | 0.114 | 0.355 | 0.445 | 0.492 | 0.108 | 0.356 | 0.693 | 0.0784 | 0.0297 | 0.27 | 0.343 | 0.152 | 0.258 |
| CC(=O)c1c(C)c2cnc(Nc3ccc(N4CCNCC4)cn3)nc2n(C2CCCC2)c1=O [Palbociclib] + Cc1c2c(nn1C)CSCc1cc(n(C)n1)CSc1cc(c3ccccc3c1)OCCCc1c(C(=O)O)n(C)c3c-2c(Cl)ccc13 [AZD5991] (first compound max 10 µM, 7x7, partner max 1 µM) | 0.732 | 0.521 | 0.347 | 0.244 | 0.245 | 0.376 | 0.372 | 0.462 | 0.986 | 0.388 | 0.497 | 0.275 | 0.445 | 0.925 | 0.216 | 0.215 | 0.391 | 0.435 | 0.173 | 0.404 |
| CC(=O)c1c(C)c2cnc(Nc3ccc(N4CCNCC4)cn3)nc2n(C2CCCC2)c1=O [Palbociclib] + Cn1cnc2c(F)c(Nc3ccc(Br)cc3Cl)c(C(=O)NOCCO)cc21 [Selumetinib] (first compound max 10 µM, 7x7, partner max 10 µM) | 0.624 | 0.759 | 0.649 | 0.224 | 0.349 | 0.303 | 0.344 | 0.457 | 0.336 | 0.352 | 0.788 | 0.223 | 0.906 | 0.826 | 0.0425 | 0.117 | 0.232 | 0.657 | 0.187 | 0.362 |
| COc1cccc(OCCCN)c1-c1cc(Nc2cnc(C#N)cn2)n[nH]1 [Prexasertib] + C=CCn1c(=O)c2cnc(Nc3ccc(N4CCN(C)CC4)cc3)nc2n1-c1cccc(C(C)(C)O)n1 [AZD1775] (first compound max 1 µM, partner max 1 µM) | 1 | 0.819 | 0.969 | 0.893 | 0.882 | 1 | 0.942 | 0.735 | 1 | 0.655 | 0.908 | 0.836 | 0.901 | 0.432 | 0.422 | 0.906 | 0.941 | 0.866 | 0.748 | 0.97 |
| COc1cccc(OCCCN)c1-c1cc(Nc2cnc(C#N)cn2)n[nH]1 [Prexasertib] + CCc1c2c(nc3ccc(O)cc13)-c1cc3c(c(=O)n1C2)COC(=O)[C@]3(O)CC [SN-38] (first compound max 1 µM, 7x7, partner max 0.3 µM) | 1 | 0.759 | 1 | 0.878 | 0.938 | 0.935 | 0.982 | 0.856 | 1 | 0.833 | 0.938 | 0.921 | 0.93 | 0.524 | 0.529 | 0.964 | 1 | 0.921 | 0.934 | 0.994 |
